The values that follow come from patent US20230382915A1, “GCN2 AND PERK KINASE INHIBITORS AND METHODS OF USE THEREOF” (Deciphera Pharmaceuticals, LLC, priority 2021, published 2023).

Some results are limits rather than exact numbers.

For one experiment, the target named is GCN2 kinase (Homo sapiens (Human), UniProt Q9P2K8). As to the kind of experiment: Biochemical assay for GCN2 (TR-FRET kinase activity). The conditions noted are these: 1 mM ATP. The procedure: Activity of GCN2 kinase was determined using a TR-FRET kinase activity assay (e.g. Riddle et al. Analytical Biochemistry (2006) 356(1) 108-116). Assays were conducted in 384-well plates (13 μL assay volume) using 2 nM GCN2 (Carna Biosciences), 130 nM GFP-EIf2α (Invitrogen), 0.2 mg/mL E. coli tRNA (sigma) and 1 mM ATP in kinase buffer (Invitrogen). Inhibition of GCN2 was measured by adding serial diluted test compound (final assay concentration of 0.5% DMSO) followed by a 3-hour incubation. Tb-peIF2α (pSer52) antibody (Invitrogen) (2 nM final assay concentration) in kinase buffer containing EDTA (final assay concentration of 20 mM) was added. After a 60 min incubation at room temperature, TR-FRET was monitored using an excitation wavelength of 340 nm and emission wavelengths of 490 nm and 520 nm. The emission ratio (520/490) at each compound concentration of was converted to percent inhibition using controls (i.e., reaction with no test compound and reaction with a known inhibitor) and IC50 values were calculated by fitting a four-parameter sigmoidal curve to the data using Prism (GraphPad software).

Experiment [1] relates to ATF4 in H929 multiple myeloma cells. In words: H929 ATF4 ELISA assay. Format: cell-based. The method, then: H929 multiple myeloma cells (catalog #CRL-9068) were obtained from the American Type Culture Collection (ATTC, Manassas, VA). Briefly, cells were grown in RPMI-1640 medium supplemented with 20% heat-inactivated fetal bovine serum (catalog #A3840002, ThermoFisher Scientific, Waltham, MA), 1% Penicillin/Streptomycin/L-Glutamine (catalog #10378016, ThermoFisher Scientific, Waltham, MA), and 0.05 mM 2-mercaptoethanol (catalog #21985-023, ThermoFisher Scientific, Waltham, MA) at 37° C., 5% CO2, and 95% humidity. Cells were expanded until reaching one million five hundred thousand cells per mL at which time they were sub-cultured or harvested for assay use. One million five hundred thousand cells per well in 1 mL complete growth medium were dispensed into 12-well plates and incubated overnight. A serial dilution of test compound was added, and cells were incubated at 37° C., 5% CO2, and 95% for four hours. Cells were lysed then ATF4 levels were measured using an ELISA assay (Proteintech, Rosemont, IL). Absorbance is measured at 450 nm and 544 nM using a Synergy2 or equivalent reader (Biotek, Winooski VT). Data were analyzed using PRISM software (Graphpad, San Diego, CA) to calculate fold stimulation of cellular ATF4 relative to vehicle treated control.
A general note: In an ELISA, binding on a coated surface is turned into a signal by an enzyme label.

Experiment [2] has as its system ATF4 levels in HT-1080 fibrosarcoma xenograft. In words: HT-1080 fibrosarcoma xenograft PK/PD model. Format: in vivo, mice. The method, then:
The HT-1080 xenograft model was performed in compliance with all the laws, regulations and guidelines of the National Institutes of Health (NIH) and with the approval of the Animal Care and Use Committee of Labcorp (Ann Arbor, MI), an AAALAC accredited facility. Food and water were provided ad libitum. […] Female nude mice (6-7 weeks old) were inoculated subcutaneously just below the right high axilla with two million cells in Dulbecco's Phosphate Buffered Saline, using a 27-gauge needle and syringe. When tumor burdens reached 150 mm 3 on average on day 6, mice were randomly assigned into groups such that the mean tumor burden for all groups was within 10% of the overall mean tumor burden for the study population. Groups were treated on days 6-11 as follows: vehicle control (dosed orally) (n=9); Compound 2 dosed orally at 10 mg/kg BID (n=9); Compound 2 dosed orally at 5 mg/kg BID; Compound 2 dosed orally at 1 mg/kg BID (n=9) prior to sample harvest at 2, 6 and 10 h post dose on day 11. Blood samples were collected in K2EDTA tubes and processed into plasma, snap frozen in liquid nitrogen then stored at −80° C. Plasma samples were subjected to pharmacokinetic analysis using liquid chromatography coupled with tandem mass spectrometry analysis (Cayman Chemical, Ann Arbor, MI). Tumors were harvested and powdered over liquid nitrogen in covaris bags and stored at −80° C. For tissue sample processing roughly 30 mg of tumor tissue was lysed in MPER lysis buffer (Thermo Fisher Scientific, Waltham, MA) supplemented with 3× Halt protease inhibitor, 3×Halt phosphatase inhibitor, 3× Sigma phosphatase inhibitor cocktail 2 and 3×EDTA on ice then homogenized using Bead Ruptor 96 (Omni, Kennesaw, GA). […] Protein concentrations were determined using BCA protein assay kit (Thermo Fisher Scientific, Waltham, MA). […] Samples were resolved using SDS-PAGE then analyzed using Western blot to quantify ATF4 and beta-Actin (Cell Signaling Technology, Danvers, MA). […] Data was analyzed using GraphPad Prism software (GraphPad, San Diego, CA) to calculate % inhibition.

The subject of experiment [3] is HT-1080 fibrosarcoma xenograft. As to the kind of experiment: HT-1080 xenograft efficacy model. Format: in vivo, mice. The conditions noted are these: 10 mg/kg BID, 14 days of dosing. The method, then:
The HT-1080 xenograft model was performed in compliance with all the laws, regulations and guidelines of the National Institutes of Health (NIH) and with the approval of the Animal Care and Use Committee of Labcorp (Ann Arbor, MI), an AAALAC accredited facility. Food and water were provided ad libitum. […] Female nude mice (6-7 weeks old) were inoculated subcutaneously just below the right high axilla with two million cells in Dulbecco's Phosphate Buffered Saline, using a 27-gauge needle and syringe. When tumor burdens reached 100 mm 3 on average on day 6, mice were randomly assigned into groups such that the mean tumor burden for all groups was within 10% of the overall mean tumor burden for the study population. […] Tumor volume and body weight were measured three time per week. Tumor burden (mg) was estimated from caliper measurements by the formula: tumor burden (mg=mm 3)=(length×width 2)/2.

Chain of GCN2 kinase (Q9P2K8 whole entry): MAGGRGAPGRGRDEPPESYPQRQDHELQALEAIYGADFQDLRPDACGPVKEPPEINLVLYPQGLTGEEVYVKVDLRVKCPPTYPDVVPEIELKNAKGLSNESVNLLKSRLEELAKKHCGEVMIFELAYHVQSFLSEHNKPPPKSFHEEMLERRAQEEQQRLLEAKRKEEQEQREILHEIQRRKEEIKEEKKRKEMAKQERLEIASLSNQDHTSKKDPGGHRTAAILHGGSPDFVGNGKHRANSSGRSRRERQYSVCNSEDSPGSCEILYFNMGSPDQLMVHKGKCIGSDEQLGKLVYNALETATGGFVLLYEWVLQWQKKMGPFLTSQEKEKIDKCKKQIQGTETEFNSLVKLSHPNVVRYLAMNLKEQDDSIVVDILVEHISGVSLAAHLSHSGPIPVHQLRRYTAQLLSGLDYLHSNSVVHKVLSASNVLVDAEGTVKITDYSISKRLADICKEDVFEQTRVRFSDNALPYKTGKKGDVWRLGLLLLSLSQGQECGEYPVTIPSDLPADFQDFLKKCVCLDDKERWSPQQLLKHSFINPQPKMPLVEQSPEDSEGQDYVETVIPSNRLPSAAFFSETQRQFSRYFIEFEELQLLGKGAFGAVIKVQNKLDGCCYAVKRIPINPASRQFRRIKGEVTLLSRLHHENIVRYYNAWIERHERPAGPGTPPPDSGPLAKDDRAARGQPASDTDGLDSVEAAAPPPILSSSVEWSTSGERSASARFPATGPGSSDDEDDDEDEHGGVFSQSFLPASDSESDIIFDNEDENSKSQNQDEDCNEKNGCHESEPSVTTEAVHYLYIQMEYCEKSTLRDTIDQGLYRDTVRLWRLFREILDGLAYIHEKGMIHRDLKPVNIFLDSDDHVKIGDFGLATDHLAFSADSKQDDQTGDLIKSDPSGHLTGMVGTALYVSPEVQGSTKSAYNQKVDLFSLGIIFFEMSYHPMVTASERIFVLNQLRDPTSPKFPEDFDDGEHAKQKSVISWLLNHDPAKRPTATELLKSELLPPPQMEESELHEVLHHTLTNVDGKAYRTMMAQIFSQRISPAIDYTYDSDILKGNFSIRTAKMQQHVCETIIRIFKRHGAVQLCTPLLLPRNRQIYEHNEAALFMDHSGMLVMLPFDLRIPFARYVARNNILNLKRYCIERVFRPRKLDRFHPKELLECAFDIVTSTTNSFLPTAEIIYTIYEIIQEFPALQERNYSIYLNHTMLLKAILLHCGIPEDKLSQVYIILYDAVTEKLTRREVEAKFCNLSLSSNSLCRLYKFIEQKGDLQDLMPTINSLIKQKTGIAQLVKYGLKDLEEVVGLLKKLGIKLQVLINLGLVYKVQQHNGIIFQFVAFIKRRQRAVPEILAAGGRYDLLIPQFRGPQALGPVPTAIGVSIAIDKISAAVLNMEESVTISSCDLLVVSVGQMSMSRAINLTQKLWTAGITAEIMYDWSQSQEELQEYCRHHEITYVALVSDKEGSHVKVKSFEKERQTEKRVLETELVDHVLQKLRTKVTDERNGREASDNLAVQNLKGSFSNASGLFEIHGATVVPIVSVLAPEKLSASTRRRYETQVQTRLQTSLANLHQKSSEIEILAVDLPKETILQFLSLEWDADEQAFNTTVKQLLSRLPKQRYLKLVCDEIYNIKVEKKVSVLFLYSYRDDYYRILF

With `Cn1cc(-c2cccc(NS(=O)(=O)c3cc(Cl)cc(CO)c3Cl)c2F)c2c(N)ncnc21` [Example 2, N-(3-(4-amino-7-methyl-7H-pyrrolo[2,3-d]pyrimidin-5-yl)-2-fluorophenyl)-2,5-dichloro-3-(hydroxymethyl)benzenesulfonamide], the IC50 (as a rule, the point on the concentration scale where inhibition reaches its midpoint) on GCN2 kinase was at most 0.1 µM. For the same compound, the “concentration at which maximum ATF4 stimulation occurred” value in experiment [1] (FIG. 1) is listed as “around 41 nM”. The “maximum stimulation in ATF4 signal” value in experiment [1] (FIG. 1) is 13 fold. Besides, the “concentrations at which ATF4 expression reverted to basal levels” value in experiment [1] (FIG. 1, inhibitory phase) is at least 370 nM. For the same compound, the “H929 NS ATF4 ELISA (ATF4 stim)” value in experiment [1] (four hours, relative to vehicle treated control) was “+++ (an ATF4 stim greater than 10 fold and less than or equal to 20 fold)”. Also, the results for the “upregulation of ATF4 levels compared to vehicle control” value in experiment [2] (1 mg/kg BID orally), in experiment [2] (5 mg/kg BID orally) and in experiment [2] (10 mg/kg BID orally) were 3 fold, 3.5 fold and 4.5 fold, respectively. Besides, in experiment [3], the “mean tumor growth inhibition” value is given as 50%.
